Assay results reported in patent publication US11731976B2, “3-(ethoxydifluoromethyl)-6-(5-fluoro-6-(2,2,2-trifluoroethoxy)pyridin-3-yl)-[1,2,4]triazolo[4,3-a]pyridine as an ion channel modulator” (Praxis Precision Medicines, Inc., priority 2018, dated 2023).

Each compound was assayed against T1, human NaV1.6 (hNaV1.6) (Homo sapiens, UniProt Q9UQD0) (assay: Modulation of late sodium current (INaL), PatchXpress electrophysiology, HEK-293 cells expressing hNaV1.6). Settings: HEK293, late current evoked by 300 nM ATX-II, read-out: NaV 1.6 Assay Data: percent inhibition of INaL at hNaV1.6.
T1 construct: expressed in transfected cells; host or cells: HEK-293
T1 sequence (Q9UQD0 whole entry): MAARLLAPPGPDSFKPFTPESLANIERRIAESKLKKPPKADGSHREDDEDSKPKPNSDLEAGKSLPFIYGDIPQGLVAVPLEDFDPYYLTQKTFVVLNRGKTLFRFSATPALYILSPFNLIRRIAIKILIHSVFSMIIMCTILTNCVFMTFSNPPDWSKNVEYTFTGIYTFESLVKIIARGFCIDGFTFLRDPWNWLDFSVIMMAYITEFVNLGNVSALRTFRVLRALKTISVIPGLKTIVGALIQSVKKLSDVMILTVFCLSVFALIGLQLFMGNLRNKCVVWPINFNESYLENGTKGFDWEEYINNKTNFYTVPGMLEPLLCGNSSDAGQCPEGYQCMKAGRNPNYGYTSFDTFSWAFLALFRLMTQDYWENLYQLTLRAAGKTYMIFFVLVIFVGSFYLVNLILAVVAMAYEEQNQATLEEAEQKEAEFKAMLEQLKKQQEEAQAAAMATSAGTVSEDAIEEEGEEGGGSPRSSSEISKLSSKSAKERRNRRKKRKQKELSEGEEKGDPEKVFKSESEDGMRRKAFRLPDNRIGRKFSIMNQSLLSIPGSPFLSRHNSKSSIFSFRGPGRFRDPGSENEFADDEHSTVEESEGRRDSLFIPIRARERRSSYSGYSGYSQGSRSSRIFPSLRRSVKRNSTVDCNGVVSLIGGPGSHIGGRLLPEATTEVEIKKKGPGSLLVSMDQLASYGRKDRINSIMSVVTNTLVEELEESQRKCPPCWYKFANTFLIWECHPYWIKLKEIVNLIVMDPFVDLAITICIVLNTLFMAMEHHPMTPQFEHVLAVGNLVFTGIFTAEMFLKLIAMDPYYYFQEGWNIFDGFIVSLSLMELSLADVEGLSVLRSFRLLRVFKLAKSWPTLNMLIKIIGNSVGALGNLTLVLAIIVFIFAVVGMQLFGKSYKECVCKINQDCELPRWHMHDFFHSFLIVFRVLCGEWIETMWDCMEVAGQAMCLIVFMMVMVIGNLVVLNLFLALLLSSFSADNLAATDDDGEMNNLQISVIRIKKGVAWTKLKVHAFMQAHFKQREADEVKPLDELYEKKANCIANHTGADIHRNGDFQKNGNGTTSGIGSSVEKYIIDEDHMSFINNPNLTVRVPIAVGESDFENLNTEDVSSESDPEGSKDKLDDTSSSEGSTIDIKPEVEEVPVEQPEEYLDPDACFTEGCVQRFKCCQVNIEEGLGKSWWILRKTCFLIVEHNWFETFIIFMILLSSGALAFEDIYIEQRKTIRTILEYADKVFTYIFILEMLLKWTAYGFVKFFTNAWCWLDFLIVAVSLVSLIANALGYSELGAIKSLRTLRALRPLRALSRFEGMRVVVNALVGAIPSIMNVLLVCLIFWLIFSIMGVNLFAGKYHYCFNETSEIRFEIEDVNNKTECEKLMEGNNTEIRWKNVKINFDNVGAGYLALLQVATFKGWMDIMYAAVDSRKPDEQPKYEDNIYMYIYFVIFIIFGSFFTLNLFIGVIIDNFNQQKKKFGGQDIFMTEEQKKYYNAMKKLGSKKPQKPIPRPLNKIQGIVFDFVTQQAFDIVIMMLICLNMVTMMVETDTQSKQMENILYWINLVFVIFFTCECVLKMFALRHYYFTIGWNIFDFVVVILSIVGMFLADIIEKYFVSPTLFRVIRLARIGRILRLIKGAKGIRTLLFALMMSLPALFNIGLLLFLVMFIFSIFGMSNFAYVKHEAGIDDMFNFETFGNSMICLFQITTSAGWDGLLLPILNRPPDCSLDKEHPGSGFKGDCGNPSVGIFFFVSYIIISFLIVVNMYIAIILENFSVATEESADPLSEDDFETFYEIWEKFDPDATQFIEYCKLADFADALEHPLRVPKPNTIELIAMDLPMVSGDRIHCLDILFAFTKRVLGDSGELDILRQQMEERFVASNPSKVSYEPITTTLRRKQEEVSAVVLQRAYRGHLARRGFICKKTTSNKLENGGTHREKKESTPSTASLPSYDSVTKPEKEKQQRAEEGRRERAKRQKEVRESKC
Format: cell-based
Protocol: Functional characterization of exemplary compounds to modulate INaL expressed by the NaV1.6 voltage-gated sodium channel was accomplished using the PatchXpress™ high throughput electrophysiology platform (Molecular Devices, Sunnyvale, Calif.). HEK-293 cells expressing recombinant, human NaV1.6 (hNaV1.6) were grown in DMEM/high-glucose Dulbecco's modified, 10% FBS, 2 mM sodium pyruvate, 10 mM HEPES and 400 μg/mL G418. Cells were grown to 50%-80% confluency prior to harvesting. Trypsinized cells were washed, allowed to recover for 1 hour and then resuspended in extracellular recording solution at a concentration of 1×10^6 cells/ml. The onboard liquid handling facility of the PatchXpress was used for dispensing cells and applying test compounds. NaV late currents were evoked by the application of 300 nM ATX-II. INaL was evoked by depolarizing pulses to 0 mV for 200 ms from a non-inactivating holding potential (e.g., −120 mV) at a frequency of 0.1 Hz. INaL amplitude and stability were determined by analyzing the mean current amplitude over the final 20 ms of the test pulse. Following steady state block with exemplary compounds (e.g., as described herein), a Na+ free solution containing an impermeant cation (e.g., Choline or NDMG) was added to confirm the identify of the sodium current. Percent steady-state inhibition of INaL was calculated as: [(INaL_compound)/(INaL_control)]*100, where INaL_compound and INaL_control represent INaL recorded in the presence or absence of compound, respectively.

| inhibition at 1 µM [%] | Compound |
| --- | --- |
| > 70 | C[C@@H](Oc1ncc(-c2cn3c(C(F)(F)OC4CC4)nnc3cn2)cc1F)C(F)(F)F [Compound 51, 3-[cyclopropoxy(difluoro)methyl]-6-[5-fluoro-6-[(1R)-2,2,2-trifluoro-1-methyl-ethoxy]-3-pyridyl]-[1,2,4]triazolo[4,3-a]pyrazine] |
| > 70 | COC(F)(F)c1nnc2ccc(-c3cnc(OC(C)(C)C(F)(F)F)c(F)c3)nn12 [Compound 5, 3-[difluoro(methoxy)methyl]-6-[5-fluoro-6-(2,2,2-trifluoro-1,1-dimethyl-ethoxy)-3-pyridyl]-[1,2,4]triazolo[4,3-b]pyridazine] |
| > 70 | CC(C)OC(F)(F)c1nnc2ccc(-c3cnc(O[C@H](C)C(F)(F)F)c(F)c3)cn12 [Compound 21, 3-[difluoro(isopropoxy)methyl]-6-[5-fluoro-6-[(1R)-2,2,2-trifluoro-1-methyl-ethoxy]-3-pyridyl]-[1,2,4]triazolo[4,3-a]pyridine] |
| > 70 | COC(F)(F)c1nnc2cnc(-c3cnc(O[C@H](C)C(F)(F)F)c(F)c3)cn12 (racemic) [Compound 6A, 3-[difluoro(methoxy)methyl]-6-[5-fluoro-6-[rac-(1R)-2,2,2-trifluoro-1-methyl-ethoxy]-3-pyridyl]-[1,2,4]triazolo[4,3-a]pyrazine] |
| > 70 | CC(C)OC(F)(F)c1nnc2ccc(-c3cnc(O[C@@H](C)C(F)(F)F)c(F)c3)cn12 [Compound 20, 3-[difluoro(isopropoxy)methyl]-6-[5-fluoro-6-[(1S)-2,2,2-trifluoro-1-methyl-ethoxy]-3-pyridyl]-[1,2,4]triazolo[4,3-a]pyridine] |
| > 70 | CCOC(F)(F)c1nnc2ccc(-c3cnc(O[C@@H](C)C(F)(F)F)c(F)c3)cn12 [Compound 32, 3-[ethoxy(difluoro)methyl]-6-[5-fluoro-6-[(1S)-2,2,2-trifluoro-1-methyl-ethoxy]-3-pyridyl]-[1,2,4]triazolo[4,3-a]pyridine] |
| > 70 | Fc1cc(-c2cn3c(C(F)(F)OC4CC4)nnc3cn2)cnc1OCC(F)(F)F [Compound 75, 3-(cyclopropoxydifluoromethyl)-6-(5-fluoro-6-(2,2,2-trifluoroethoxy)pyridin-3-yl)-[1,2,4]triazolo[4,3-a]pyrazine] |
| 30 to 70 | COCc1nnc2cnc(-c3cnc(O[C@@H](C)C(F)(F)F)c(F)c3)cn12 [Compound 38, 6-[5-fluoro-6-[(1S)-2,2,2-trifluoro-1-methyl-ethoxy]-3-pyridyl]-3-(methoxymethyl)-[1,2,4]triazolo[4,3-a]pyrazine] |
| > 70 | CCOC(F)(F)c1nnc2cnc(-c3cnc(O[C@H](C)C(F)(F)F)c(F)c3)cn12 [Compound 26, 3-[ethoxy(difluoro)methyl]-6-[5-fluoro-6-[(1R)-2,2,2-trifluoro-1-methyl-ethoxy]-3-pyridyl]-[1,2,4]triazolo[4,3-a]pyrazine] |
| > 70 | Fc1cc(-c2cn3c(C(F)(F)OCC4CC4)nnc3cn2)cnc1OCC(F)(F)F [Compound 9, 3-[cyclopropylmethoxy(difluoro)methyl]-6-[5-fluoro-6-(2,2,2-trifluoroethoxy)-3-pyridyl]-[1,2,4]triazolo[4,3-a]pyrazine] |
| 30 to 70 | COC(F)(F)c1nnc2cnc(-c3cnc(OCC(F)(F)F)c(F)c3)c(C)n12 [Compound 61, 3-[difluoro(methoxy)methyl]-6-[5-fluoro-6-(2,2,2-trifluoroethoxy)-3-pyridyl]-5-methyl-[1,2,4]triazolo[4,3-a]pyrazine] |
| > 70 | COC(F)(F)c1nnc2cnc(-c3cnc(OC(C)(C)C(F)(F)F)c(F)c3)cn12 [Compound 15, 3-[difluoro(methoxy)methyl]-6-[5-fluoro-6-(2,2,2-trifluoro-1,1-dimethyl-ethoxy)-3-pyridyl]-[1,2,4]triazolo[4,3-a]pyrazine] |
| > 70 | COC(F)(F)c1nnc2cc(C)c(-c3cnc(O[C@H](C)C(F)(F)F)c(F)c3)nn12 [Compound 66, 3-[difluoro(methoxy)methyl]-6-[5-fluoro-6-[(1R)-2,2,2-trifluoro-1-methyl-ethoxy]-3-pyridyl]-7-methyl-[1,2,4]triazolo[4,3-b]pyridazine] |
| > 70 | COC(F)(F)c1nnc2ccc(-c3cnc(O[C@@H](C)C(F)(F)F)c(F)c3)nn12 [Compound 12, 3-[difluoro(methoxy)methyl]-6-[5-fluoro-6-[(1S)-2,2,2-trifluoro-1-methyl-ethoxy]-3-pyridyl]-[1,2,4]triazolo[4,3-b]pyridazine] |
| > 70 | COC(F)(F)c1nnc2ccc(-c3cnc(O[C@H](C)C(F)(F)F)c(F)c3)nn12 [Compound 13, 3-[difluoro(methoxy)methyl]-6-[5-fluoro-6-[(1R)-2,2,2-trifluoro-1-methyl-ethoxy]-3-pyridyl]-[1,2,4]triazolo[4,3-b]pyridazine] |
| > 70 | CCOC(F)(F)c1nnc2cnc(-c3cnc(O[C@@H](C)C(F)(F)F)c(F)c3)c(C)n12 [Compound 67, 3-[ethoxy(difluoro)methyl]-6-[5-fluoro-6-[(1S)-2,2,2-trifluoro-1-methyl-ethoxy]-3-pyridyl]-5-methyl-[1,2,4]triazolo[4,3-a]pyrazine] |
| > 70 | COC(F)(F)c1nnc2cnc(-c3cnc(O[C@@H](C)C(F)(F)F)c(F)c3)c(C)n12 [Compound 58, 3-[difluoro(methoxy)methyl]-6-[5-fluoro-6-[(1S)-2,2,2-trifluoro-1-methyl-ethoxy]-3-pyridyl]-5-methyl-[1,2,4]triazolo[4,3-a]pyrazine] |

More lines, now with the values behind:

| Compound | inhibition at 1 µM [%] |
| --- | --- |
| COCc1nnc2cc(C)c(-c3cnc(OCC(F)(F)F)c(F)c3)nn12 [Compound 71, 6-[5-fluoro-6-(2,2,2-trifluoroethoxy)-3-pyridyl]-3-(methoxymethyl)-7-methyl-[1,2,4]triazolo[4,3-b]pyridazine] | < 30 |
| COC(F)(F)c1nnc2cc(C)c(-c3cnc(OCC(F)(F)F)c(F)c3)nn12 [Compound 65, 3-[difluoro(methoxy)methyl]-6-[5-fluoro-6-(2,2,2-trifluoroethoxy)-3-pyridyl]-7-methyl-[1,2,4]triazolo[4,3-b]pyridazine] | 30 to 70 |
| FC1(F)CC(Oc2ccc(-c3cn4c(C(F)(F)OC5CC5)nnc4cn3)cn2)C1 [Compound 78, 3-(cyclopropoxydifluoromethyl)-6-(6-(3,3-difluorocyclobutoxy)pyridin-3-yl)-[1,2,4]triazolo[4,3-a]pyrazine] | > 70 |
| COCc1nnc2cc(C)c(-c3cnc(O[C@@H](C)C(F)(F)F)c(F)c3)nn12 [Compound 70, 6-[5-fluoro-6-[(1S)-2,2,2-trifluoro-1-methyl-ethoxy]-3-pyridyl]-3-(methoxymethyl)-7-methyl-[1,2,4]triazolo[4,3-b]pyridazine] | < 30 |
| CC(C)COC(F)(F)c1nnc2ccc(-c3cnc(OCC(F)(F)F)c(F)c3)cn12 [Compound 2, 3-[difluoro(isobutoxy)methyl]-6-[5-fluoro-6-(2,2,2-trifluoroethoxy)-3-pyridyl]-[1,2,4]triazolo[4,3-a]pyridine] | > 70 |
| COC(F)(F)c1nnc2cnc(-c3cnc(OC4CC(F)(F)C4)c(F)c3)cn12 [Compound 76, 3-(difluoro(methoxy)methyl)-6-(6-(3,3-difluorocyclobutoxy)-5-fluoropyridin-3-yl)-[1,2,4]triazolo[4,3-a]pyrazine] | > 70 |
| CC(C)COC(F)(F)c1nnc2cnc(-c3cnc(O[C@@H](C)C(F)(F)F)c(F)c3)cn12 [Compound 45, 3-[difluoro(isobutoxy)methyl]-6-[5-fluoro-6-[(1S)-2,2,2-trifluoro-1-methyl-ethoxy]-3-pyridyl]-[1,2,4]triazolo[4,3-a]pyrazine] | > 70 |
| COC(F)(F)c1nnc2ccc(-c3cnc(OC4(C(F)(F)F)CCC4)c(F)c3)nn12 [Compound 17, 3-[difluoro(methoxy)methyl]-6-[5-fluoro-6-[1-(trifluoromethyl)cyclobutoxy]-3-pyridyl]-[1,2,4]triazolo[4,3-b]pyridazine] | > 70 |
| COCc1nnc2ccc(-c3cnc(O[C@H](C)C(F)(F)F)c(F)c3)nn12 [Compound 46, 6-[5-fluoro-6-[(1R)-2,2,2-trifluoro-1-methyl-ethoxy]-3-pyridyl]-3-(methoxymethyl)-[1,2,4]triazolo[4,3-b]pyridazine] | 30 to 70 |
| COCc1nnc2ccc(-c3cnc(O[C@H](C)C(F)(F)F)c(F)c3)cn12 [Compound 40, 6-[5-fluoro-6-[(1R)-2,2,2-trifluoro-1-methyl-ethoxy]-3-pyridyl]-3-(methoxymethyl)-[1,2,4]triazolo[4,3-a]pyridine] | < 30 |
| CC(C)COC(F)(F)c1nnc2cnc(-c3cnc(OCC(F)(F)F)c(F)c3)cn12 [Compound 82, 3-(difluoro(isobutoxy)methyl)-6-(5-fluoro-6-(2,2,2-trifluoroethoxy)pyridin-3-yl)-[1,2,4]triazolo[4,3-a]pyrazine] | > 70 |
| CCOC(F)(F)c1nnc2cnc(-c3ccc(O[C@H](C)C(F)(F)F)nc3)cn12 [Compound 86, (R)-3-(ethoxydifluoromethyl)-6-(6-((1,1,1-trifluoropropan-2-yl)oxy)pyridin-3-yl)-[1,2,4]triazolo[4,3-a]pyrazine] | > 70 |
